Tests used:
Type in all cases: in vivo, human
[1] = test system: hypertensive patients with ESRD on chronic hemodialysis; test: Randomized double-blinded trial of vasopressin vs placebo during hemodialysis with 0.5 kg increased target weight reduction (Example 3); settings: vasopressin 0.3 mU·kg^−1·min^−1 during dialysis; for Lowest SAP: p=0.02 vs placebo; for Symptomatic hypotensive episodes: one of eleven patients, p=0.001 vs placebo
Method: All patients were studied at regularly scheduled dialysis sessions. Patients underwent conventional hemodialysis with hollow fiber high flux polysulfone dialyzers on volumetric dialysis machines (Cobe Centrysystem 3, Gambro Renal Care Products, Inc., Lakewood, Colo.). Dialysis times were 3.5–4.5 hours. Blood flow was 300–400 mL/min and dialysate was delivered at 600 mL/min. The dialysis bath contained potassium, 2 mEq/L; calcium, 2.5 mEq/L; magnesium, 0.75 mEq/L; and bicarbonate, 40 mEq/L. In those patients who were prescribed dialysate sodium modeling and/or reduced dialysate temperature (35–37° C.) prior to the study, the parameters of these interventions were held constant throughout the study. Ultrafiltration was performed at a constant rate based on the target weight loss for that dialysis session. Oscillometric blood pressure and heart rate measurements were taken at 15–30 minute intervals.
Exclusion criteria for all studies were: 1) active vascular disease, including angina, claudication, transient ischemic events, ischemic colitis and Raynaud's disease, 2) a history of prolonged QT syndrome, 3) a history of orthostatic hypotension and 4) a systolic blood pressure greater than 200 mm Hg and/or a diastolic blood pressure greater than 100 mm Hg. Fluid was administered for pressor support at the discretion of the dialysis staff, blinded to the study drug, on the basis of hypotensive episodes during dialysis. Excess fluid removed was defined as the difference between the baseline prescription weight loss and the actual weight loss achieved during the study hemodialysis.
Hemodialysis-induced fluid removal during vasopressin administration in hypertensive patients. 22 patients with ESRD on chronic hemodialysis and hypertension (defined by a systolic arterial pressure greater than 140 mm Hg or the requirement of anti-hypertensive medications to maintain a lower systolic arterial pressure) were studied. A randomized, controlled and double blinded trial compared the effect of vasopressin (0.3 mU·kg^−1·min^−1) or placebo (normal saline) on the capacity to tolerate a 0.5 kg increase in the target weight reduction specified by the standard dialysis prescription. Patients were studied only if their pre-dialysis weight was within ±1 kg. of the mean pre-dialysis weight of the previous three sessions.
Otherwise the hemodialysis routine was unchanged and its management was left to the health care personnel performing the treatment, who where not involved in the study. The nurse administering the hemodialysis treatment managed hypotensive episodes per routine with administration of normal saline and/or a decrease in ultrafiltration rate. Symptomatic hypotension was identified by the nurse conducting the dialysis and criteria included a sudden drop in systolic arterial pressure associated with one or more of the following: lightheadedness, dizziness, cramping, nausea and vomiting.
Statistical Analyses. Analyses were performed using Statistical Package for the Social Sciences, version 9. Changes in hemodynamic parameters within patients during each session and between sessions were analyzed by repeated measures of ANOVA. Analysis of continuous variables between treatment arms was performed using the Friedman (two-way) analysis of variance. All values are expressed as mean±SE unless otherwise stated. P values of less than […] (two-tailed) were considered statistically significant.
Effect of vasopressin administration during increased hemodialysis-induced luid removal. […]

[2] = Plasma vasopressin during constant vasopressin infusion in normal subjects and ESRD patients (Example 3, FIG. 8); settings: normal subjects vs patients with ESRD
Method: Plasma vasopressin concentration. Vasopressin in plasma was determined as previously described (Landry, D. W., H. R. Levin, et al. (1997). Circulation 95(5): 1122–5).
Administration of vasopressin. In eight normal subjects and eight patients with ESRD off dialysis, 8-arginine vasopressin (vasopressin, American Pharmaceutical Partners, Schaumberg, Ill.) in normal saline was administered through an antecubital intravenous line. In eight patients with ESRD during hemodialysis, vasopressin was infused through the venous (blood return) limb of the dialysis circuit throughout the dialysis session at a rate of 0.15 or 0.3 mU·kg^−1·min^−1.
Effect of vasopressin administration on its plasma concentration in normal subjects and Patients with ESRD. Because the effect of renal failure on the clearance of plasma vasopressin has remained unresolved (Shade, R. E. and L. Share (1976). Endocrinology 99(5): 1199–206; Benmansour, M., M. Rainfray, et al. (1982). Eur J Clin Invest 12(6): 475–80; Argent, N. B., R. Wilkinson, et al. (1992). Clin Sci (Lond) 83(5): 583–7), we administered a constant infusion of hormone to normal subjects and to patients with ESRD and measured plasma levels.

normal subjects = test: Systolic arterial pressure during AVP infusion in normal subjects (Example 1); settings: for systolic arterial blood pressure: normals, n=12, M ± SD
Method: (§1) Healthy controls and patients with end-stage renal disease (e.g. defined as creatinine clearance of less than 10 ml/min) were studied. The studies were conducted on regularly scheduled hemodialysis days. The duration of hemodialysis remained the same as that prescribed prior to the study period. AVP or placebo (normal saline) was administered at a constant rate of 0.15, 0.3 or o.6 mU/kg/min through a venous line (controls) or through the venous limb of the dialysis circuit (hemodialysis patients). The patient's hemodialysis prescription remained unchanged except for the administration of AVP or placebo. Intradialytic hypotension was treated in the customary manner with the infusion of isotonic and hypertonic fluids.
(§2) Serum AVP levels were determined by a radioimmunoassay technique. Blood pressure was measured with a cuff-type sphygmomanometer at 20 minute intervals.
We discovered that patients with ERSD are hypersensitive to vasopressin's pressor action.
The administration of exogenous AVP to patients with ESDR led to the discovery that these patients are hyper-responsive to the vascular effect of this hormone.

[3] = test system: ESRD patients during hemodialysis; test: Systolic arterial pressure during hemodialysis with AVP infusion vs vehicle, twelve patients (Example 1); settings: for systolic arterial pressure: dialysis with AVP infused, M ± SD
Method: as §1, §2
AVP administration results in a higher intra-dialysis blood pressure. To examine whether vasopressin could help in supporting blood pressure during dialysis, we dialyzed a group of ESRD patients during administration of vehicle or during administration of vasopressin at a dose without pressor effect in normal subjects.
To determine the blood pressure effect of exogenous AVP during dialysis, two dialysis treatments were administered to twelve patients. In one, only the vehicle used to administer AVP was given while in the other treatment, AVP was infused. As shown, systolic arterial pressure decreased more than 10 mm Hg during the control dialysis while it decreased a maximum of 5 mm Hg during the dialysis in which AVP was infused.

With `NC(=O)CC[C@@H]1NC(=O)[C@H](Cc2ccccc2)NC(=O)[C@H](Cc2ccc(O)cc2)NC(=O)[C@@H](N)CSSC[C@@H](C(=O)N2CCC[C@H]2C(=O)N[C@@H](CCCN=C(N)N)C(=O)NCC(N)=O)NC(=O)[C@H](CC(N)=O)NC1=O` [AVP, 8-arginine vasopressin] the “Mean SAP during dialysis” value ([1]; 11 patients, mean±SE) was 145 ± 6 mmHg, the “Lowest SAP” value ([1]; 11 patients, mean±SE, listed as Vasopressin) was 130 ± 7 mmHg and the “Lowest SAP” value ([1]; 11 patients, mean±SE, listed as vasopressin) was 130±7 mmHg. For the same molecule, the “Maximum drop in SAP from mean” value ([1]; 11 patients, mean±SE, p=0.03 vs placebo, listed as Vasopressin) was 17 ± 2 mmHg, the “Maximum drop in SAP from mean” value ([1]; 11 patients, mean±SE, p=0.03 vs placebo, listed as vasopressin) was 17±2 mmHg and the Symptomatic hypotensive episodes ([1]; listed as Vasopressin) was 9 ± 1%. The Symptomatic hypotensive episodes ([1]; listed as vasopressin) was 9%, the “normal saline administered for pressure support” value ([1]; p=0.03 vs placebo, FIG. 10A) was 40 ± 43 mL and the “volume of extra fluid removed during the dialysis above the baseline prescription” value ([1]; p=0.045 vs. placebo, FIG. 10B) was 460 ± 100 mL. The “effect of renal failure on clearance of plasma vasopressin” value [2] was “does not alter the clearance”, the “pressor action of AVP” value (normal subjects; normal subjects, same dose as in ESRD patients (FIG. 3A)) was “no pressure action” and the “systolic arterial blood pressure” value (normal subjects; 30 minutes of AVP infusion) was 114 ± 10. For the same molecule, the “systolic arterial blood pressure” value (normal subjects; 60 minutes of AVP infusion) was 113 ± 10, the “systolic arterial blood pressure” value (normal subjects; 90 minutes of AVP infusion) was 114 ± 10 and the “systolic arterial blood pressure” value (normal subjects; 120 minutes of AVP infusion) was 113 ± 11. For the same molecule, the “systolic arterial blood pressure” value (normal subjects; before infusion (baseline)) was 115 ± 13, the “decrease of systolic arterial pressure during dialysis” value ([3]; dialysis in which AVP was infused, control dialysis decreased more than 10 mm Hg) was no more than 5 mm Hg and the systolic arterial pressure ([3]; 30 minutes of dialysis) was 153 ± 25 mm Hg. The systolic arterial pressure ([3]; 60 minutes of dialysis) was 155 ± 29 mm Hg, the systolic arterial pressure ([3]; 90 minutes of dialysis) was 149 ± 30 mm Hg and the systolic arterial pressure ([3]; 120 minutes of dialysis) was 148 ± 30 mm Hg. It also gave a systolic arterial pressure ([3]; 150 minutes of dialysis) of 149 ± 31 mm Hg, a systolic arterial pressure ([3]; 180 minutes of dialysis) of 149 ± 30 mm Hg and a systolic arterial pressure ([3]; before dialysis, twelve patients) of 153 ± 28 mm Hg.

Source: patent publication US7183255B2, “Method for stabilizing blood pressure in hemodialysis subjects” (Intradialytic Pharmaceuticals, priority 2003, dated 2007)
